{
  "source": "patent US12031897B2",
  "about": "“Target-locking single-molecule nanoscopy” (Memorial Sloan Kettering Cancer Center, priority 2019, dated 2024)",
  "key": {"[1]": {"tested_on": "Pou5f1 transcription site (MCP-mNeonGreen nascent RNA)", "assay": "MCP-mNeonGreen nascent transcription at the endogenous Pou5f1 locus in mESCs (live-cell imaging)", "type": "cell-based, mouse", "protocol": "All the mESCs were cultured and maintained in +2i media with appropriate selection drugs on 0.1% gelatin-coated dishes, at 37° C. in a humidified 5% CO2 incubator. +2i media contain D-MEM (Thermo Fisher Scientific 10313021), 15% fetal bovine serum (Gemini Bio 100-500), 0.1 mM β-mercaptoethanol (Thermo Fisher Scientific 21985023), 2 mM L-alanyl-L-glutamine (Thermo Fisher Scientific 35050079), 1×MEM nonessential amino acids (Thermo Fisher Scientific 11140076), 1000 U/mL LIF (Millipore ESG1107), […] (Millipore 361559) and 1 μM PD0325901 (Axon Medichem 1408). OMG and NMG SNAP-Rpb1 cells were cultured with +2i media plus 3 μg/ml α-amanitin.\n(§1) Before imaging, cells were seeded onto 8-chamber coverglass (LabTek, 155411) coated with 5 μg/ml laminin (BioLamina LN511), in −2i media (OMG) or +2i media (NMG) and appropriate drugs. For SiR staining, cells were labeled with media containing 0.3 μM SiR-BG for 10 mins, at 37° C., followed by three washes with new media.\nWide-Field Cell Imaging Experiments. Live cell imaging experiments (tdPCP-EGFP and MCP-mNeonGreen tracking). For time-lapse imaging, a z-stack of 11 frames at 1 frame/second was acquired, by stepping the sample along the z-axis using the nanopositioning stage (250 nm steps). The CCD data were analyzed using IDL 6.4 (ITTVIS). Maximum projection images were calculated for each stack, and the resulting 11 sec/frame movie was used to track the intensities of individual tdPCP-EGFP-tagged transcription sites. A particle tracking routine (Crocker and Grier, 1996) was used for finding the positions of the transcription site in each frame and linking them into a 2D trajectory. The intensity trace of tdPCP-EGFP at the transcription site was corrected for photo-bleaching using the time trace of tdPCP-EGFP in a nearby nuclear region. The auto-correlation function was calculated (for the tdPCP-EGFP fluctuation analysis), or the data were imported in Origin 8.5.0 (OriginLab) and the trace fitted to a single-exponential decay (for the transcription inhibition experiments)."}, "[2]": {"tested_on": "Sox2 foci at the Pou5f1 locus", "assay": "Sox2 cluster signal at Pou5f1 upon inhibition (live-cell confocal/STED scans)", "type": "cell-based, mouse", "settings": "Pou5f1", "text": "Contrary to Brd4, Med22 and Cdk9, Sox2 clustering persists through transcription inhibition by either JQ1 or FVP (FIG. 8D). The differential sensitivities between factors and modes of transcription inhibition unveil a hierarchy of molecular transactions that control Pou5f1 transcription: Sox2 binding occurs upstream of Cdk9/Med22/Brd4 recruitment and accumulation of all of 4 regulatory factors occurs upstream of Pol II release into productive elongation. […] For real-time confocal and STED imaging, example implementations may program the wave generator to scan 2 μm×2 μm or 1 μm×1 μm xy areas in 0.8 sec or 0.2 sec respectively. 3D scanning was performed (via, e.g., detection system 150) by acquiring 5 xy scans while moving the stage by 0.5 μm in z between scans. TTL pulses corresponding to single-photon events from the APDs, together with the trigger pulses from the wave generator were detected using a field-programmable gate array (FPGA) data acquisition system (National Instruments, PCIe-7852R). Before imaging, cells were seeded onto 8-chamber coverglass (LabTek, 155411) coated with 5 μg/ml laminin (BioLamina LN511), in -2i media (OMG) or +2i media (NMG) and appropriate drugs. For SiR staining, cells were labeled with media containing 0.3 μM SiR-BG for 10 mins, at 37° C., followed by three washes with new media. Targeted integration of SNAP-tag in the endogenous Sox2, Cdk9, Brd4 and Med22 genes. To generate OMG or NMG SNAP-Sox2 targeted cells, OMG-1 or NMG mESCs (1×106) were transfected with 10 μg SNAP-Sox2 donor vector and 0.6 μg […] vector. 10 days after transfection, the cells were trypsinized, labeled with 0.3 μM SiR-BG for 10 mins, rinsed three times with new media, followed by immediate fluorescence-activated cell sorting (FACS). All the SiR-positive cells were collected, expanded for 2 weeks, trypsinized, labeled with SiR-BG and sorted again. Almost 100% SNAP positive pools were obtained from the second round of sorting and individual clones were picked and expanded. Homozygous clones (dubbed “OMG SNAP-Sox2 clone 8” and NMG SNAP-Sox2 clone 3'' respectively) with both Sox2 alleles correctly targeted with SNAP-tag integrations and that show SiR nuclear staining were selected for all further experiments."}, "[3]": {"target": "T1, Brd4 foci at the Pou5f1 locus (Mus musculus, UniProt Q9ESU6)", "T1 construct": "integrating a SNAP-tag at the N-terminus of the endogenous Brd4; endogenous in cells; host or cells: mouse ESCs OMG-1, homozygous SNAP-Brd4 knock-in clone 9 (printed as 'OMG SNAP-Cdk9 clone 9')", "assay": "Brd4 cluster signal at Pou5f1 upon inhibition (live-cell confocal/STED scans)", "type": "cell-based", "settings": "Pou5f1", "protocol": "For real-time confocal and STED imaging, example implementations may program the wave generator to scan 2 μm×2 μm or 1 μm×1 μm xy areas in 0.8 sec or 0.2 sec respectively. 3D scanning was performed (via, e.g., detection system 150) by acquiring 5 xy scans while moving the stage by 0.5 μm in z between scans. TTL pulses corresponding to single-photon events from the APDs, together with the trigger pulses from the wave generator were detected using a field-programmable gate array (FPGA) data acquisition system (National Instruments, PCIe-7852R).\nas §1\nTo generate OMG or NMG SNAP-Brd4 targeted cells, OMG-1 or NMG mESCs (1×106) were transfected with 10 μg SNAP-Brd4 donor vector and 0.6 μg espCas9-gRNA-Brd4 vector. 10 days after transfection, the cells were trypsinized, labeled with SiR-BG and subjected to FACS, generating a first-round SiR-positive pool. This pool was then expanded, stained with SiR-BG and subjected to second FACS round and individual clones were picked and expanded."}, "[4]": {"tested_on": "H3K27ac at the Pou5f1 locus", "assay": "ChIP-qPCR analysis of H3K27ac after A-485 treatment", "type": "cell-based, mouse", "settings": "for H3K27ac characteristic decay time: 1 μM A-485", "protocol": "ChIP-qPCR analysis of H3K27ac after A-485 treatment. For H3K27ac and H3 ChIP-qPCR experiments, confluent 10 cm dishes (˜3×10^6 OMG SNAP-Sox2 cells) were treated with 1 μM A-485 (Structural Genomics Consortium) or 0.1% v/v DMSO for the indicated times. Fixation, cell lysis, sonicated chromatin preparation, immunoprecipitation and qPCR analysis were performed as described for OMG SNAP-Rpb1 cells in the previous section, with the exception that 5 μg H3K27ac antibody (Active Motif 39685) or 5 μg H3 antibody (Active Motif 39763) were used for each IP respectively."}},
  "note": "Several values for one entry are separate records, joined by “and”; a condition that tells them apart may be missing. Equal values may be shown once.",
  "data": [
    {"smiles": "CNC(=O)Nc1ccc2c(c1)CC[C@@]21OC(=O)N(CC(=O)N(Cc2ccc(F)cc2)[C@@H](C)C(F)(F)F)C1=O", "note": "[A-485]", "values": [
      {"measurement": "time until nascent Pou5f1 transcription shuts down", "setting": "[1]; 1 μM A-485", "value": "≤ 20", "unit": "min"},
      {"measurement": "MCP decay time upon p300/CBP HAT inhibition", "setting": "[1]; Pou5f1, mESCs, 1 μM A-485, mean±S.D., n=17", "value": "635 s and 635 ± 350 s"},
      {"measurement": "transcription shutdown time-scale", "setting": "[1]; Pou5f1, upon A-485 inhibition", "value": 10.5, "unit": "min"},
      {"measurement": "response of individual Pou5f1 transcription sites at intermediate inhibitor concentration", "setting": "[1]; intermediate [A-485] or [JQ1]", "value": "all-or-none responses"},
      {"measurement": "Sox2 cluster size characteristic decay time", "setting": "[2]; upon A-485 inhibition", "value": 12.5, "unit": "min"},
      {"measurement": "Sox2 signal exponential fit τ", "setting": "[2]; upon adding 1 μM A-485 (FIG. 8I legend)", "value": "12.5 ± 8.6", "unit": "s"},
      {"measurement": "Brd4 signal exponential fit τ", "setting": "[3]; inhibition with 1 μM A-485 (FIG. 16J legend)", "value": "8 ± 1", "unit": "s"},
      {"measurement": "Brd4 cluster shrinking time", "setting": "[3]; upon A-485 inhibition", "value": 8, "unit": "min"},
      {"measurement": "H3K27ac characteristic decay time", "setting": "[4]; primer pair 4", "value": "7 ± 2", "unit": "min"},
      {"measurement": "H3K27ac characteristic decay time", "setting": "[4]; primer pair 5", "value": "7 ± 4", "unit": "min"},
      {"measurement": "H3K27ac characteristic decay time", "setting": "[4]; primer pair 6", "value": "5 ± 1", "unit": "min"},
      {"measurement": "H3K27ac characteristic decay time", "setting": "[4]; primer pair 7", "value": "13 ± 4", "unit": "min"},
      {"measurement": "H3K27ac loss kinetics", "setting": "[4]; upon A-485 inhibition", "value": "~7", "unit": "min"}
    ]}
  ]
}
